Experimental data published in patent US20230099441A1, “HETEROCYCLIC COMPOUND, APPLICATION THEREOF, AND COMPOSITION CONTAINING SAME” (GenEros Biopharma Ltd., priority 2019, published 2023).

Tested on: STAT5 Y694 phosphorylation
Test: Protein electrophoresis and blotting of STAT5 Y694 phosphorylation in Jurkat cells stimulated with human interferon beta
Type: cell-based
Details: for Example of Effect 1: Inhibiting Ability (Protein Electrophoresis and Blotting): observed pSTAT5 bands at 10 μM and 100 μM; for Inhibiting Ratio (0% for vehicle control): 1 hour pretreatment, 20 ng/ml human interferon beta 30 minutes, pSTAT5/GAPDH
Method: Example of Effect 1: Protein Electrophoresis and Blotting Experiment
Standard protein electrophoresis and chemiluminescence imaging equipment (Bio-Rad);
Protein lysate RIPA (Lianke Biological; Cat #WB020); Western blot transfer membrane PVDF (Millipore; Cat #IPVH00010);
Jurkat cells (ATCC American Standard Culture Center, TIB152) were cultured in a 6-well plate at a density of 1×10^6/ml with RPMI medium […] 10% fetal bovine serum in a humidified incubator at 37° C. and maintained at 5% carbon dioxide overnight. On the second day, the cells were pretreated with compounds of different concentrations (the mother liquor of the compound prepared by dimethyl sulfoxide was diluted in the medium at the required concentration) for 1 hour, and then stimulated with 20 ng/ml human interferon beta for 30 minutes, it was mixed thoroughly and then placed in an incubator at 37° C. environment. […] Then an appropriate volume of RIPA Lysis Solution was added, it was mixed well, and placed on ice for 1 hour, inverted and mixed several times in the middle. Then, the cell lysate was centrifuged at 12000 rpm at 4° C. for 10 minutes, and the supernatant was transferred to another test tube, aliquoted and stored at −20° C. until use.
An equal volume of protein lysate was mixed with an appropriate 6-fold protein loading buffer (Biyun Tian Biochemical Company P0015F), and the mixture was heated at 95 degrees for 10 minutes, after full denaturation, the protein sample was added to the polyacrylamide gel (self-made, raw material purchased from Soleibao Biotechnology Company A1010, 30% acrylamide solution), and electrophoresis was performed at the appropriate voltage for 1 hour, until the strips were fully separated. It was transferred to a polyvinylidene fluoride membrane according to standard procedures, and blocked with 5% skim milk for 1 hour, and the specified antibody was added, and it was diluted 1:1000 in 3% bovine serum albumin, and it was incubated overnight for four degrees. It was thoroughly rinsed, incubated with the secondary antibody, exposed to chemiluminescence and signals were collected. ImageJ software was used to quantify the obtained chemiluminescence results. The same area was selected, the gray values of STAT5 phosphorylation band and GAPDH band of each sample were analyzed, and the ratio of pSTAT5/GAPDH level was calculated. The value of the solvent-treated sample was 100%, and the remaining samples were converted into relative data in the same proportion, that is, the percentage corresponding to the solvent sample. […] The solvent control group was the same as the test compound group except that DMSO was used instead of the DMSO solution of the test compound. N1 (Pimozide) was a specific positive control.

| SMILES | Example of Effect 1: Inhibiting Ability (Protein Electrophoresis and Blotting) | Inhibiting Ratio (0% for vehicle control) (1 μM) [%] | Inhibiting Ratio (0% for vehicle control) (10 μM) [%] | Inhibiting Ratio (0% for vehicle control) (100 μM) [%] |
| --- | --- | --- | --- | --- |
| O=C(Cc1ccc(C(F)(F)F)cc1)NCc1cnc2c(c1)CC(=O)N2 [GEN1-083, N-((2-oxo-2,3-dihydro-1H-pyrrolo[2,3-b]pyridin-5-yl)methyl)-2-(4-(trifluoromethyl)phenyl)acetamide] | − |  |  |  |
| O=C(Cc1ccc(C(F)(F)F)cc1)N[C@H]1CC[C@@H](n2c(=O)[nH]c3ccccc32)CC1 [GEN1-021, Cis-N-(4-(2-oxo-2,3-dihydro-1H-benzo[d]imidazol-1-yl)cyclohexyl)-2-(4-(trifluoromethyl)phenyl)acetamide] | + | −39.8 | −26.3 | 97.6 |
| NS(=O)(=O)c1cccc2[nH]c(=O)n(C3CCN(C(=O)Cc4ccc(C(F)(F)F)cc4)CC3)c12 [GEN1-094, 2-oxo-3-(1-(2-(4-(trifluoromethyl)phenyl)acetyl)piperidin-4-yl)-2,3-dihydro-1H-benzo[d]imidazol-4-sulfonamide] | + |  |  |  |
| O=C(Cc1ccc(C(F)(F)F)nc1)N1CCC(n2c(=O)[nH]c3ccccc32)CC1 [GEN1-027, 1-(1-(2-(6-(trifluoromethyl)pyridin-3-yl)acetyl)piperidin-4-yl)-1H-benzo[d]imidazole-2(3H)-one] | + |  |  |  |
| O=C(Cc1ccc(C(F)(F)F)cc1)N1CCC(N2C/C(=N\O)Nc3ccccc32)CC1 [GEN1-150, (E)-1-(4-(3-(hydroxyimino)-3,4-dihydroquinoxaline-1(2H)-yl)piperidin-1-yl)-2-(4-(trifluoromethyl)phenyl)ethane-1-one] | − |  |  |  |
| O=C(Cc1ccc2c(c1)OCO2)N1CCC(n2c(=O)[nH]c3ccccc32)CC1 [GEN1-096, 1-(1-(2-(benzo[d][1,3]dioxol-5-yl)acetyl)piperidin-4-yl)-1H-benzo[d]imidazol-2(3H)-one] | + |  |  |  |
| O=c1[nH]c2ccccc2n1C1CCN(S(=O)(=O)Cc2ccc(C(F)(F)F)cc2)CC1 [GEN1-068, 1-(1-((4-(trifluoromethyl)benzyl)sulfonyl)piperidin-4-yl)-1H-benzo[d]imidazol-2(3H)-one] | − |  |  |  |
| O=C(Cc1ccc(C(F)(F)F)cc1)NCc1ccc2c(c1)C(=O)NC2 [GEN1-084, N-((3-oxoisoindol-5-yl)methyl)-2-(4-(trifluoromethyl)phenyl)acetamide] | + |  |  |  |
| NC(=O)c1cccc2[nH]c(=O)n(C3CCN(C(=O)Cc4ccc(C(F)(F)F)cc4)CC3)c12 [GEN1-095, 2-oxo-3-(1-(2-(4-(trifluoromethyl)phenyl)acetyl)piperidin-4-yl)-2,3-dihydro-1H-benzo[d]imidazol-4-carboxamide] | − |  |  |  |
| O=C(Cc1ccc(-c2ccccc2)cc1)N1CCC(n2c(=O)[nH]c3ccccc32)CC1 [GEN1-033, 1-(1-(2-([1,1′-biphenyl]-4-yl)acetyl)piperidin-4-yl)-1H-benzo[d]imidazole-2(3H)-one] | + | 12.8 | 7.6 | 98.0 |
| Cc1ccc(CC(=O)N2CCC(n3c(=O)[nH]c4ccccc43)CC2)cc1 [Example X7, 1-(1-(2-(p-tolyl)acetyl)piperidin-4-yl)-1H-benzo[d]imidazole-2(3H)-one] | − | −27.9 | −13.6 | 88.5 |
| O=C(O)c1ccc(CC(=O)N2CCC(n3c(=O)[nH]c4ccccc43)CC2)cc1 [Example X6, 4-(2-oxo-2-(4-(2-oxo-2,3-dihydro-1H-benzo[d]imidazol-1-yl)piperidine-1-yl)ethyl)benzoic acid] | − |  |  |  |
| O=C(Cc1ccc2ccccc2c1)N1CCC(n2c(=O)[nH]c3ccccc32)CC1 [GEN1-073, 1-(1-(2-(naphth-2-yl)acetyl)piperidin-4-yl)-1H-benzo[d]imidazol-2(3H)-one] | + |  |  |  |
| O=C(Cc1ccc(C(F)(F)F)cc1)N1CCC(n2c(=O)[nH]c3ccc(-c4ccccc4)cc32)CC1 [GEN1-090, 6-phenyl-1-(1-(2-(4-(trifluoromethyl)phenyl)acetyl)piperidin-4-yl)-1H-benzo[d]imidazol-2(3H)-one] | + |  |  |  |
| N#Cc1ccc2c(c1)[nH]c(=O)n2C1CCN(C(=O)Cc2ccc(C(F)(F)F)cc2)CC1 [GEN1-006, 2-oxo-1-(1-(2-(4-(trifluoromethyl)phenyl)acetyl)piperidin-4-yl)-2,3-dihydro-1H-benzo[d]imidazole-5-carbonitrile] | + | −2.8 | 35.7 | 94.8 |
| O=C(Cc1ccc(C(F)(F)F)cc1)N1CCC(n2c(=O)[nH]c3ccncc32)CC1 [GEN1-043, 3-(1-(2-(4-(trifluoromethyl)phenyl)acetyl)piperidin-4-yl)-1H-imidazo[4,5-c]pyridin-2(3H)-one] | − |  |  |  |
| O=C(Cn1c(=O)[nH]c2ccccc21)N1CCC(O)(c2ccc(C(F)(F)F)cc2)CC1 [GEN1-085, 1-(2-(4-hydroxy-4-(4-(trifluoromethyl)phenyl)piperidin-1-yl)-2-oxoethyl)-1H-benzo[d]imidazol-2(3H)-one] | − |  |  |  |
| CCC(=O)N1CCC(n2c(=O)oc3ccccc32)CC1 [Example P1, 3-(1-propionylpiperidin-4-yl)benzo[d]oxazole-2(3H)-one] | − |  |  |  |
| N#CNc1nc2ccccc2n1C1CCN(C(=O)Cc2ccc(C(F)(F)F)cc2)CC1 [GEN1-061] | + |  |  |  |
| CC(C)(C)c1ccc2[nH]c(=O)n(C3CCN(C(=O)Cc4ccc(C(F)(F)F)cc4)CC3)c2c1 [GEN1-088, 6-(tert-butyl)-1-(1-(2-(4-(trifluoromethyl)phenyl)acetyl)piperidin-4-yl)-1H-benzo[d]imidazol-2(3H)-one] | + |  |  |  |
| CC(=O)N1CCN(C2CCN(C(=O)Cc3ccc(C(F)(F)F)cc3)CC2)c2ccccc21 [GEN1-243, 1-(4-(4-acetyl-3,4-dihydroquinoxaline-1(2H)-yl)piperidin-1-yl)-2-(4-(trifluoromethyl)phenyl)ethenone] | + |  |  |  |
| O=C(Cc1ccc(C(F)(F)F)cc1)N1CCC(N2c3ccccc3NS2(=O)=O)CC1 [GEN1-054, 1-(4-(2,2-dioxybenzo[c] [1,2,5]thiadiazole-1(3H)-yl)piperidin-1-yl)-2-(4-(trifluoromethyl)phenyl)ethenone] | − |  |  |  |
| COc1cccc2[nH]c(=O)n(C3CCN(C(=O)Cc4ccc(C(F)(F)F)cc4)CC3)c12 [GEN1-015, 7-methoxy-1-(1-(2-(4-(trifluoromethyl)phenyl)acetyl)piperidin-4-yl)-1H-benzo[d]imidazole-2(3H)-one] | + | 9.7 | 43.4 | 95.7 |
| O=C(Cc1ccncc1)N1CCC(n2c(=O)oc3ccccc32)CC1 [Example P3, 3-(1-(2-(pyridin-4-yl)acetyl)piperidin-4-yl)benzo[d]oxazole-2(3H)-one] | − |  |  |  |
| CN(C)c1ccc(CC(=O)N2CCC(n3c(=O)[nH]c4ccccc43)CC2)cc1 [GEN1-097, 1-(1-(2-(4-(dimethylamino)phenyl)acetyl)piperidin-4-yl)-1H-benzo[d]imidazol-2(3H)-one] | + |  |  |  |
| O=C(CCc1ccc(C(F)(F)F)cc1)N1CCC(n2c(=O)[nH]c3ccccc32)CC1 [GEN1-018, 1-(1-(3-(4-(trifluoromethyl)phenyl)propionyl)piperidin-4-yl)-1H-benzo[d]imidazole-2(3H)-one] | + | −36.5 | −6.2 | 98.6 |
